The source of these data is patent US20250197428A1, “INHIBITORS OF KIF18A AND USES THEREOF” (ACCENT THERAPEUTICS, INC., priority 2022, published 2025).

The subject of one data set is OVCAR-3 cells. The data set can be described thus: In vitro anti-proliferative activity assay in cancer cell line OVCAR-3 (CellTiter-Glo, 4- or 7-day). In kind it is cell-based. Conditions: Homo sapiens, OVCAR-3, 96 h, 4-day assay; read-out: OVCAR-3 cellular antiproliferation assay IC50. (In general: Cellular ATP, detected with luciferase, serves as a proxy for viable cell number.)

A short description of data set [1]: In vivo pharmacokinetic evaluation in mouse. The arrangement: species or system female balb/c nude mice.
The next data set concerns OVCAR-3 xenografts. The data set can be described thus: 28 day in vivo efficacy in OVCAR-3 xenografts. The arrangement: species or system female NOD SCID mice. Conditions: day 28, 30 mg/kg once daily, oral. How it is done: Experiments were performed in female NOD SCID mice (GenPharmatech Co.). Animals were allowed to acclimate for 7 days before the study. The general health of the animals were evaluated by a veterinarian, and complete health checks were performed prior to the study. General procedures for animal care and housing were in accordance with the standard, Commission on Life Sciences, National Research Council, Standard Operating Procedures (SOPs) of Pharmaron, Inc. The mice were kept in laminar flow rooms at constant temperature and humidity with 3-5 mice in each cage. Animals were housed in polycarbonate cages which had dimensions of 300×180×150 mm^3 and in an environmentally monitored, well-ventilated room maintained at a temperature of 23±3° C. and a relative humidity of 40%-70%. Fluorescent lighting provided illumination approximately 12 hours per day. Animals had free access to irradiation sterilized dry granule food during the entire study period except for time periods specified by the protocol, as well as sterile drinking water in a bottle that was available ad libitum during the quarantine and study periods.
The OVCAR-3 (ATCC) tumor cell lines were maintained in vitro as a monolayer in RPMI 1640 medium supplemented with 20% heat inactivated FBS, at 37° C. in an atmosphere of 5% CO2 in air. The tumor cells were sub-cultured, not exceeding 4-5 passages, and cells growing in an exponential growth phase were harvested and counted for tumor inoculation. Each mouse was inoculated subcutaneously on the right flank with OVCAR-3 tumor cells (2×10^7) in 0.2 mL of RPMI-1640 with Matrigel (1:1) for model development.
Treatment was started when the mean tumor size reached approximately 150-200 mm^3, at which time the mice were randomized into treatment groups such that the average starting tumor size is similar for each treatment group. Animals were then treated with vehicle or indicated mg/kg (10-100) of compound at a given frequency (e.g., BID, QD, 4 days on treatment followed by 3 days off treatment) by oral gavage at a final dosing volume of 10 mL/kg.
The measurement of tumor size was conducted with a caliper and recorded twice per […] week. The tumor volume (TV) (mm^3) was estimated using the formula: TV=a×b^2/2, where “a” and “b” are long and short diameters of a tumor, respectively.
The TVs were used for calculation of the tumor growth inhibition and tumor growth delay. For the tumor growth inhibition (TGI), the value using the formula: […]
The “TVfinal” and “TVinitial” are the mean tumor volumes on the final day and initial day, respectively.
All statistical tests was conducted on GraphPad, and the level of significance was set at 5% or P<0.05. The group means and standard deviations were calculated for all measurement parameters. Two-way RM ANOVA followed by Tukeys post hoc comparisons of the means was applied among groups.
Additionally, after compound treatment, the animals were observed an additional 28 days without compound treatment.
The initial treatment period with Example 1 was 28 days, after which overall efficacy and tolerability were evaluated based on tumor volume and body weight changes observed during the treatment period (FIG. 2a and FIG. 2b).
The initial treatment period with Example 1 was 28 days, after which overall efficacy and tolerability were evaluated based on tumor volume and body weight changes observed during the treatment period (FIG. 3a and FIG. 3b).

Data set [2] can be described thus: Tolerability (body weight) in 28 day OVCAR-3 xenograft study. The class given is in vivo. The following applies: all concentrations dosed, 28 day treatment.

SMILES strings stand for the structures. pIC50: −log10 of the molar value. Where only a bound is given, the exact number is not on record here.

As usually defined, the Cmax is the peak of the concentration-time curve. Consider `Cc1cc(NC(=O)c2ccc(NS(=O)(=O)CCO)cc2N2CC[C@@]3(C(F)F)C[C@H]3C2)nc(N2CCC(F)(F)CC2)n1` (single isomer, unassigned) [Example 29b], for which the pIC50 in the data set with OVCAR-3 cells was over 7.00. Moreover, the “IV Clearance” value in data set [1] (3 mg/kg IV) is recorded as 3.3 mL/ming/kg. For the same compound, in data set [1] (female, balb/c nude, plasma, 3 mg/kg IV, read-out: IV Vss), the Vd was determined as 0.97 L/kg. Besides, the Cmax in data set [1] (female, balb/c nude, plasma, 10 mg/kg PO) worked out at 4700 ng/mL. Besides, the half-life in data set [1] (female, balb/c nude, plasma, 10 mg/kg PO, read-out: PO T1/2 (converted)) was 3.7 h. Further, in the data set on OVCAR-3 xenografts, the “% T/C” value was determined as 1% and the “% TGI” value is listed as 99%. Also, the “Tolerability based on body weight” value in data set [2] is recorded as “well tolerated”.
